The text below walks through data of ChEMBL document CHEMBL1201862, “PubChem BioAssay data set” (2004).

What all share (test): NCI-60 cell line screen, 48 h
Assay [1] has as its system SF-268.
Assay [2] concerns COLO 205.
Assay [3] deals with MOLT-4.
In assay [4] the test system is 786-0.
Assay [5] has as its system NCI-H226.
The subject of assay [6] is RPMI-8226.
Assay [7] relates to LOX IMVI.
The subject of assay [8] is CAKI-1.
For assay [9], the system named is HOP-62.
For assay [10], the system named is ACHN.
The test system of assay [11] is A549.
Assay [12] deals with SF-295.
Assay [13] has as its system SN12C.
Assay [14] deals with SW-620.
In assay [15] the test system is OVCAR-3.
The test system of assay [16] is OVCAR-4.
Assay [17] deals with OVCAR-5.
Assay [18] concerns RXF 393.
In assay [19] the test system is A498.

Each structure is given as a SMILES string.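 Dose response: 5 concentrations. Exposure: 48 h. Format: 96-well plates. Endpoint: linear interpolation; highest concentration if not reached. GI50 is the concentration that inhibits growth by half.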 Activity calls are given as the source filed them. No stated cut-off is given here; in the data, active = GI50 up to about 1.1 µM and inactive = higher.

As to `C#CCN(Cc1ccc2nc(-c3ccccc3)c(Cl)nc2c1)c1cc(OC)c(OC)c(OC)c1`, the GI50 was 40.4 µM (inactive) in [1]; 57.1 µM (inactive) in [2]; 83.6 µM (inactive) in [3]; > 100 µM (inactive) in [4]; > 100 µM (inactive) in [5]; 16.1 µM (inactive) in assay [6]. Also, the GI50 in assay [7] was 14.8 µM (inactive); in [8] it was > 100 µM (inactive); in assay [9], > 100 µM (inactive); in assay [10] it was 58.2 µM (inactive); in assay [11], 86.9 µM (inactive); in assay [12], > 100 µM (inactive). Also, the GI50 in [13] was > 100 µM (inactive); in [14], 15 µM (inactive); in [15] it was > 100 µM (inactive); in assay [16], > 100 µM (inactive); in [17], > 100 µM (inactive); in assay [18] it was 37.1 µM (inactive). The GI50 in assay [19] was > 100 µM (inactive).
With `CC(C)=Cc1cc(C(=O)Nc2ccc(Cl)c(Cl)c2)nc(N)n1`, the GI50 in assay [1], in assay [3], in assay [4], in assay [5], in [6] and in assay [7] was > 100 µM (inactive) in each case. Besides, the GI50 in assay [8], in assay [9], in [10], in assay [11], in [12] and in [13] was > 100 µM (inactive) in each case. Besides, the GI50 in assay [14], in assay [15], in assay [16], in assay [17], in [18] and in assay [19] was > 100 µM (inactive) each time.
On to `COC(=O)/C=C(\C)CC/C=C(\C)CCC1OC1(C)C` (stereo not drawn), for which the GI50 was 15.5 µM (inactive) in assay [2]; 8.17 µM (inactive) in [3]; 12.6 µM (inactive) in [4]; 12.1 µM (inactive) in [5]; 2.53 µM (inactive) in [7]; 11.7 µM (inactive) in assay [8]. Further, the GI50 is 15.8 µM (inactive) in [9]; 13 µM (inactive) in assay [10]; 12.9 µM (inactive) in [11]; 11.3 µM (inactive) in assay [12]; 10.2 µM (inactive) in assay [13]; 13.6 µM (inactive) in assay [14]. The GI50 in assay [15] is 11.7 µM (inactive); in assay [16], 11.8 µM (inactive); in [17], 13.6 µM (inactive); in assay [18] it was 13.3 µM (inactive); in assay [19], 14.5 µM (inactive).
As to `O=C1C=Cc2noc3cccc1c23`, the GI50 in [1] was 3.15 µM (inactive); in assay [2] it was 17 µM (inactive); in assay [3], 0.836 µM (active); in [4], 7.08 µM (inactive); in [5], 19.1 µM (inactive); in assay [6], 2.01 µM (inactive). In addition, the GI50 in assay [7] was 3.15 µM (inactive); in assay [8], 12.5 µM (inactive); in [10], 2.76 µM (inactive); in assay [11], 19 µM (inactive); in assay [12], 18.6 µM (inactive); in assay [13] it was 11.7 µM (inactive). In addition, the GI50 was 4.01 µM (inactive) in assay [14]; 3.31 µM (inactive) in assay [15]; 2.07 µM (inactive) in [16]; 14.5 µM (inactive) in [17]; 2.52 µM (inactive) in assay [18]; 13.6 µM (inactive) in assay [19].
For the molecule `O=C(N[C@@H]1C=CCC[C@@H]1c1ccccc1)OCc1ccccc1`, the GI50 in assay [1] was 25 µM (inactive); in assay [2] it was 18.5 µM (inactive); in assay [3], 13.1 µM (inactive); in assay [4] it was 18.7 µM (inactive); in assay [5] it was 19 µM (inactive); in [6], 18 µM (inactive). For the same molecule, the GI50 in [7] was 15.2 µM (inactive); in [8], 12.2 µM (inactive); in assay [9], 18.5 µM (inactive); in [10], 24 µM (inactive); in assay [11], 25.6 µM (inactive); in assay [12], 20.4 µM (inactive). Moreover, the GI50 was 16.9 µM (inactive) in assay [13]; 22.9 µM (inactive) in assay [14]; 16.8 µM (inactive) in [15]; 18.6 µM (inactive) in [16]; 17.8 µM (inactive) in [17]; 20.3 µM (inactive) in [18]. In addition, in assay [19], the GI50 was 19.1 µM (inactive).
On to `NCCNC(=O)c1cccc2cc3ccccc3nc12`, for which the GI50 is 1.61 µM (inactive) in [1]; 1.07 µM (active) in assay [2]; 0.333 µM (active) in [3]; 7.6 µM (inactive) in [4]; 1.43 µM (inactive) in assay [5]; 3.85 µM (inactive) in assay [6]. Moreover, the GI50 was 1.24 µM (inactive) in [7]; 3.15 µM (inactive) in assay [8]; 1.86 µM (inactive) in assay [9]; 1.02 µM (active) in [10]; 1.27 µM (inactive) in assay [11]; 2.94 µM (inactive) in assay [12]. The GI50 in [13] is 2.45 µM (inactive); in [14], 1.42 µM (inactive); in assay [15], 3.66 µM (inactive); in assay [16], 3.75 µM (inactive); in assay [17] it was 3.74 µM (inactive); in [18] it was 2.31 µM (inactive). Moreover, the GI50 in [19] was 1.81 µM (inactive).
Regarding `O=C(CCc1ccccc1)On1nnc2ccccc2c1=O`, the GI50 in assay [1], in assay [2], in [3], in assay [4], in assay [5] and in [7] was > 100 µM (inactive) each time. Also, the GI50 in assay [8] was 30.8 µM (inactive); in assay [9], > 100 µM (inactive); in [10] it was > 100 µM (inactive); in assay [11] it was > 100 µM (inactive); in [12], > 100 µM (inactive); in [13], > 100 µM (inactive). Also, the GI50 in assay [14] is > 100 µM (inactive); in assay [15], > 100 µM (inactive); in assay [16], > 100 µM (inactive); in assay [17], > 100 µM (inactive); in [18] it was > 100 µM (inactive); in [19], 38.3 µM (inactive).
Regarding `Cc1c(C(=O)/C=C/c2cccc3ccccc23)[n+]([O-])c2ccccc2[n+]1[O-]`, the GI50 in assay [1] was 14.7 µM (inactive); in assay [2], 13.9 µM (inactive); in assay [3], 11.5 µM (inactive); in [4] it was 12.6 µM (inactive); in [5] it was 14 µM (inactive); in assay [6] it was 12 µM (inactive). In addition, the GI50 was 7.93 µM (inactive) in assay [7]; 7.85 µM (inactive) in assay [8]; 15.8 µM (inactive) in assay [9]; 15.3 µM (inactive) in assay [10]; 16.4 µM (inactive) in [11]; 16.1 µM (inactive) in assay [12]. For the same molecule, the GI50 in assay [13] was 14.1 µM (inactive); in assay [14] it was 10.4 µM (inactive); in [15] it was 10.7 µM (inactive); in assay [16], 4.47 µM (inactive); in assay [17] it was 15.2 µM (inactive); in [18], 10.1 µM (inactive). Also, the GI50 in assay [19] is 16.9 µM (inactive).
On to `O=C1C2c3[nH]c4ccccc4c3C3CCCC3C2C(=O)N1c1ccccc1` (stereo not drawn), for which the GI50 in assay [1], in [2], in assay [3], in assay [4], in assay [6] and in [7] was > 100 µM (inactive) each time. Also, the GI50 in [10] is > 100 µM (inactive); in [11], > 100 µM (inactive); in assay [12] it was > 100 µM (inactive); in [13] it was > 100 µM (inactive); in assay [14] it was 74.1 µM (inactive); in assay [15], > 100 µM (inactive). In addition, the GI50 in assay [16] was 17.1 µM (inactive); in assay [18], > 100 µM (inactive); in assay [19], > 100 µM (inactive).
In the case of `COc1ccc(OC)c(N2CC(N)C2=O)c1` (stereo not drawn), the GI50 in assay [1], in assay [2], in assay [3], in [4], in assay [5] and in assay [6] was > 100 µM (inactive) each time. Besides, the GI50 in assay [7], in assay [9], in assay [10], in assay [11], in assay [12] and in assay [13] was > 100 µM (inactive) in each case. For the same molecule, the GI50 in [14], in [15], in assay [16], in assay [18] and in [19] was > 100 µM (inactive) in each case.
With `C[C@H](CCC1SC1(C)C)C1CCC2(C)C3=C(CC[C@]12C)[C@@]1(C)CC[C@H](O)C(C)(C)C1CC3` (stereo partly drawn), the GI50 in assay [1], in [2], in assay [3], in assay [4], in assay [5] and in [6] was > 100 µM (inactive) each time. Also, the GI50 was > 100 µM (inactive) in [7]; > 100 µM (inactive) in assay [8]; > 100 µM (inactive) in [9]; 61 µM (inactive) in assay [10]; > 100 µM (inactive) in assay [11]; > 100 µM (inactive) in assay [12]. Also, the GI50 in assay [13], in assay [14], in assay [15], in [16], in assay [17] and in assay [18] was > 100 µM (inactive) throughout. Moreover, in assay [19], the GI50 is > 100 µM (inactive).
